Experimental data: US20080045567A1, “Therapeutic Agent for Hyperlipemia and Therapeutic Agent for Diabetes” (Kowa Co., Ltd, priority 2004, published 2008)

Experiments:
blood triglycerides [1] = experiment: Lowering of blood triglycerides by combined administration of sodium salt of compound A and calcium salt of pitavastatin in rats (Example 1); format: in vivo, male Wistar strain rats; conditions: rat; for blood triglycerides in comparison with the control group (in words): orally 14 days, Dunnett's test; for Reduction rate of blood triglycerides (%): blood collected after 18 h fast, vs control group
Method: The effect of lowering blood triglycerides by combined administration of sodium salt of the compound A and calcium salt of pitavastatin was determined by the following method. Six-week-old male Wistar strain rats (Nippon Ikagaku Jikken Doubutsu Kabushiki Kaisha) were used for the test. Throughout the experimental period, the rats were fed in a rearing room maintained at a light-dark cycle (light period lit by room lamp: 7 am to 7 pm), a temperature of 23±3 degrees C., and a humidity of 55±15%, and were allowed free access to solid feed (CE-2: CLEA Japan, Inc.) and tap water. Calcium salt of pitavastatin and sodium salt of the compound A were suspended in an aqueous solution of 0.5% by mass of sodium carboxymethylcellulose (Iwai Chemicals Co., Ltd.) and prepared so that the dose amount became 2 mL/kg. Since calcium salt of pitavastatin contained 9.43% by mass of water, 1.1-fold by mass of the dose amount was weighed to correct. The suspension was refrigerated (4 degrees C.) and kept in a light-resistant bottle, and its preparation was carried out every 7 days. Thirty-two rats were divided into four groups (eight rats per each group) so that blood total cholesterol and blood triglycerides are averaged. That is, the four groups consisted of a control group, a group of calcium salt of pitavastatin alone (10 mg/kg), a group of sodium salt of the compound A alone (1 mg/kg), and a group of a combination of calcium salt of pitavastatin (10 mg/kg) and sodium salt of the compound A (1 mg/kg). The drugs were orally administered once a day (at 4 pm) for 14 days repeatedly, and the control group received orally the aqueous solution of 0.5% by mass of sodium carboxymethylcellulose at 2 mL/kg. All the groups were fasted for 18 hours after the final administration. Then, blood was collected and blood triglycerides were determined. Multigroup comparison between the control group and drug-administered group was performed with Dunnett's multiple comparison test after Bartlett's test for analysis of variance, and a significance level lower than 5% was considered to indicate significant difference.

blood triglycerides [2] = experiment: Lowering of blood triglycerides by combined administration of sodium salt of compound A and calcium salt of atorvastatin in rats (Example 2); format: in vivo, male Wistar strain rats; conditions: rat; for blood triglycerides in comparison with the control group (in words): orally 14 days, Dunnett's test; for Reduction rate of blood triglycerides (%): blood collected after 18 h fast, vs control group
Text: Six-week-old male Wistar strain rats (Nippon Ikagaku Jikken Doubutsu Kabushiki Kaisha) were used for the test. Throughout the experimental period, the rats were fed in a rearing room maintained at a light-dark cycle (light period lit by room lamp: 7 am to 7 pm), a temperature of 23±3 degrees C., and a humidity of 55±15%, and were allowed free access to solid feed (CE-2: CLEA Japan, Inc.) and tap water.
Calcium salt of pitavastatin and sodium salt of the compound A were suspended in an aqueous solution of 0.5% by mass of sodium carboxymethylcellulose (Iwai Chemicals Co., Ltd.) and prepared so that the dose amount became 2 mL/kg. Since calcium salt of pitavastatin contained 9.43% by mass of water, 1.1-fold by mass of the dose amount was weighed to correct. The suspension was refrigerated (4 degrees C.) and kept in a light-resistant bottle, and its preparation was carried out every 7 days.
Thirty-two rats were divided into four groups (eight rats per each group) so that blood total cholesterol and blood triglycerides are averaged. That is, the four groups consisted of a control group, a group of calcium salt of pitavastatin alone (10 mg/kg), a group of sodium salt of the compound A alone (1 mg/kg), and a group of a combination of calcium salt of pitavastatin (10 mg/kg) and sodium salt of the compound A (1 mg/kg). The drugs were orally administered once a day (at 4 pm) for 14 days repeatedly, and the control group received orally the aqueous solution of 0.5% by mass of sodium carboxymethylcellulose at 2 mL/kg. All the groups were fasted for 18 hours after the final administration. Then, blood was collected and blood triglycerides were determined.
The effect of lowering blood triglycerides by combined administration of sodium salt of the compound A and calcium salt of atorvastatin was determined as in Example 1.

[3] = 1 mg/kg orally once a day for 14 days

O=C(O)C[C@H](O)C[C@H](O)/C=C/c1c(C2CC2)nc2ccccc2c1-c1ccc(F)cc1 [Pitavastatin Ca, (3R,5S,6E)-7-[2-cyclopropyl-4-(4-fluorophenyl)-3-quinolyl]-3,5-dihydroxy-6-heptenoic acid]
blood triglycerides in comparison with the control group (in words) (blood triglycerides [1]; 10 mg/kg alone): a tendency to be lowered
Reduction rate of blood triglycerides (%) (blood triglycerides [1]; 10 mg/kg orally once a day for 14 days): 20%

O=C(O)C(Cl)(Cl)CCCCCCCCCCc1ccc(Cl)cc1 [Compound A Na, 12-(4-chlorophenyl)-2,2-dichlorododecanoic acid]
blood triglycerides in comparison with the control group (in words) (blood triglycerides [2]; 1 mg/kg alone, p<0.05): a significant reduction
Reduction rate of blood triglycerides (%) (blood triglycerides [2]; [3]): 25%
blood triglycerides in comparison with the control group (in words) (blood triglycerides [1]; 1 mg/kg alone, p<0.05): a significant reduction
Reduction rate of blood triglycerides (%) (blood triglycerides [1]; [3]): 25%

CC(C)c1c(C(=O)Nc2ccccc2)c(-c2ccccc2)c(-c2ccc(F)cc2)n1CC[C@@H](O)C[C@@H](O)CC(=O)O [Atorvastatin Ca, atorvastatin]
blood triglycerides in comparison with the control group (in words) (blood triglycerides [2]; 50 mg/kg alone): a tendency to be lowered
Reduction rate of blood triglycerides (%) (blood triglycerides [2]; 50 mg/kg orally once a day for 14 days): 7%
